This assay has as its target AFUA_6g12080 (Orf12080) module 1 C*AT (Aspergillus fumigatus, UniProt Q4WLW5). The class given is biochemical. To be noted: ATP, 10 mM MgCl2, pH 7.4, 25 °C, 5 μM enzyme (apo); off-pathway acyl-AMP release.

Sequence of AFUA_6g12080 (Orf12080) module 1 C*AT (Q4WLW5 1-885): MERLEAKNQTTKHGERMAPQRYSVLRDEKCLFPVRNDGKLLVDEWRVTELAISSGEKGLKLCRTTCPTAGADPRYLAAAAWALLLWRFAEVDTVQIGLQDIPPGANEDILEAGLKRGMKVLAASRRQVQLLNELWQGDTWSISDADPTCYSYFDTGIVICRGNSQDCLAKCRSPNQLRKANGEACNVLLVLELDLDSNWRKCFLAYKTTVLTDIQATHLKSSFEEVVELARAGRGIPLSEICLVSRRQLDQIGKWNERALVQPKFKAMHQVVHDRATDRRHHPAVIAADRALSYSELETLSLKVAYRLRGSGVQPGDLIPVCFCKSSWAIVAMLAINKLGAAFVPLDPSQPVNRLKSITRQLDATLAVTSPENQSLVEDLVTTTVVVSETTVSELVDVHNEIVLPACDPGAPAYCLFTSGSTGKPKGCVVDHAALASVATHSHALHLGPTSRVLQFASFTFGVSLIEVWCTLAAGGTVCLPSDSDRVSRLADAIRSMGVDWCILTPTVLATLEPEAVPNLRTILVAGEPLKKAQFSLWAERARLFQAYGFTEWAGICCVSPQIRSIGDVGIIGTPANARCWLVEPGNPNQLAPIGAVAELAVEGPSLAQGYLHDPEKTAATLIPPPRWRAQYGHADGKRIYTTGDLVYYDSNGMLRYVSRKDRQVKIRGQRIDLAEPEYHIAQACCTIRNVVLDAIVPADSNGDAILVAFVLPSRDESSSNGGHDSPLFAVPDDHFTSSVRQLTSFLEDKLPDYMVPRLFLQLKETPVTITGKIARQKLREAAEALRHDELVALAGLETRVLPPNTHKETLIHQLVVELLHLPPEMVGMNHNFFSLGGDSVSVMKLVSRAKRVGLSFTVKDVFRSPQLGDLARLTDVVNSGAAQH

For orientation: Km means the substrate concentration at which the rate is half of its maximum. Regarding `Nc1ccccc1C(=O)O` [anthranilic acid, 2-aminobenzoic acid], the Km was determined as 18 µM.
